Our source for the melting point and change in vivo values is patent publication US7786108B2, “Compounds and method for treating dyslipidemia” (Eli Lilly and Company, priority 2004, dated 2010).

Each structure is given as a SMILES string.

The subject of series [1] is transgenic mice that express both human CETP and human apolipoprotein A-1. Briefly: In vivo assay of plasma lipids: elevation of HDL cholesterol. Particulars: Mus musculus; single oral dose 30 mg/kg; HDL cholesterol in serum at 8 hr after administration; relative to a control; read-out: % HDL cholesterol increase. The text has this: Additional serum lipids can be analyzed by enzymatic methods.

`Cc1cc2c(cc1C(F)(F)F)N(c1ccc(C(=O)O)cc1)CCC[C@@H]2N(Cc1cc(C(F)(F)F)cc(C(F)(F)F)c1)c1nnn(C)n1` [Example 92, (S)-4-{5-[(3,5-Bis-trifluoromethyl-benzyl)-(2-methyl-2H-tetrazol-5-yl)-amino]-7-methyl-8-trifluoromethyl-2,3,4,5-tetrahydro-benzo[b]azepin-1-yl}-benzoic acid] yielded a melting point of 101 to 105 °C.

Molecule `Cc1cc2c(cc1C(F)(F)F)N(Cc1ccc(C(=O)O)cc1)CCC[C@@H]2N(Cc1cc(C(F)(F)F)cc(C(F)(F)F)c1)c1nnn(C)n1` [Example 89, (S)-4-{5-[(3,5-Bis-trifluoromethyl-benzyl)-(2-methyl-2H-tetrazol-5-yl)-amino]-7-methyl-8-trifluoromethyl-2,3,4,5-tetrahydro-benzo[b]azepin-1-ylmethyl}-benzoic acid] yielded a melting point of 95 to 98 °C. In addition, in series [1], the change in vivo at 30 mg/kg came to 186%.

For the molecule `COC(=O)c1ccc(CN2CCC[C@H](N(Cc3cc(C(F)(F)F)cc(C(F)(F)F)c3)c3nnn(C)n3)c3cc(C)c(C(F)(F)F)cc32)cc1` [Example 88, (S)-4-{5-[(3,5-Bis-trifluoromethyl-benzyl)-(2-methyl-2H-tetrazol-5-yl)-amino]-7-methyl-8-trifluoromethyl-2,3,4,5-tetrahydro-benzo[b]azepin-1-ylmethyl}-benzoic acid methyl ester], the melting point was 71 to 74 °C (dec.).

`Cc1cc2c(cc1C(F)(F)F)N(Cc1cccc(C(=O)O)c1)CCC[C@@H]2N(Cc1cc(C(F)(F)F)cc(C(F)(F)F)c1)c1nnn(C)n1` [Example 91, (S)-3-{5-[(3,5-Bis-trifluoromethyl-benzyl)-(2-methyl-2H-tetrazol-5-yl)-amino]-7-methyl-8-trifluoromethyl-2,3,4,5-tetrahydro-benzo[b]azepin-1-ylmethyl}-benzoic acid] yielded a melting point of 83 to 86 °C.

For `Cc1cc2c(c(C)c1C(F)(F)F)N(Cc1ccc(C(=O)O)cc1)CCC[C@@H]2N(Cc1cc(C(F)(F)F)cc(C(F)(F)F)c1)c1nnn(C)n1` [Example 202, (S)-4-{5-[(3,5-Bis-trifluoromethyl-benzyl)-(2-methyl-2H-tetrazol-5-yl)-amino]-7,9-dimethyl-8-trifluoromethyl-2,3,4,5-tetrahydro-benzo[b]azepin-1-ylmethyl}-benzoic acid], in series [1], the change in vivo at 30 mg/kg worked out at 206%.

In the case of `Cc1cc2c(c(C)c1C(F)(F)F)N(Cc1ccncc1)CCC[C@@H]2N(Cc1cc(C(F)(F)F)cc(C(F)(F)F)c1)c1nnn(C)n1` [Example 151, (S)-(3,5-Bis-trifluoromethyl-benzyl)-(7,9-dimethyl-1-pyridin-4-ylmethyl-8-trifluoromethyl-2,3,4,5-tetrahydro-1H-benzo[b]azepin-5-yl)-(2-methyl-2H-tetrazol-5-yl)-amine], the change in vivo at 30 mg/kg in series [1] worked out at 165%.

Take `Cn1nnc(N(Cc2cc(C(F)(F)F)cc(C(F)(F)F)c2)[C@H]2CCCN(CC3CCCC3)c3cc4c(cc32)CCCC4)n1` [Example 77, (3,5-Bis-trifluoromethyl-benzyl)-(1-cyclopentylmethyl-2,3,4,5,7,8,9,10-octahydro-1H-naphtho[2,3-b]azepin-5-yl)-(2-methyl-2H-tetrazol-5-yl)-amine]: in series [1], the change in vivo at 30 mg/kg was found to be 229%.

As to `Cc1cc2c(cc1C(F)(F)F)N(CC1CCC(CC(=O)O)CC1)CCCC2N(Cc1cc(C(F)(F)F)cc(C(F)(F)F)c1)c1nnn(C)n1` (centres unmarked) [Example 31, (4-{5-[(3,5-Bis-trifluoromethyl-benzyl)-(2-methyl-2H-tetrazol-5-yl)-amino]-7-methyl-8-trifluoromethyl-2,3,4,5-tetrahydro-benzo[b]azepin-1-ylmethyl}-cyclohexyl)-acetic acid], the change in vivo at 30 mg/kg in series [1] amounted to 114%.

For the molecule `CCC(CC)OC(=O)N1CCC[C@H](N(Cc2cc(C(F)(F)F)cc(C(F)(F)F)c2)c2nnn(C)n2)c2cc(C)c(C(F)(F)F)cc21` [Example 18, (S)-5-[(3,5-Bis-trifluoromethyl-benzyl)-(2-methyl-2H-tetrazol-5-yl)-amino]-7-methyl-8-trifluoromethyl-2,3,4,5-tetrahydro-benzo[b]azepine-1-carboxylic acid 1-ethyl-propyl ester], the change in vivo at 30 mg/kg in series [1] was 105%.

Take `COC(=O)c1cccc(CN2CCC[C@H](N(Cc3cc(C(F)(F)F)cc(C(F)(F)F)c3)c3nnn(C)n3)c3cc(C)c(C(F)(F)F)cc32)c1` [Example 90, (S)-3-{5-[(3,5-Bis-trifluoromethyl-benzyl)-(2-methyl-2H-tetrazol-5-yl)-amino]-7-methyl-8-trifluoromethyl-2,3,4,5-tetrahydro-benzo[b]azepin-1-ylmethyl}-benzoic acid methyl ester]: the melting point was 62 to 65 °C (dec.).

A word on the melting point: it is the temperature, or range, at which the solid turns liquid.
